Source: article PMC11129975, “A first-in-human phase I study of TAS-117, an allosteric AKT inhibitor, in patients with advanced solid tumors” (Cancer Chemotherapy and Pharmacology, 2024)

Test: Phase I safety: adverse events, adverse drug reactions, DLTs in patients with advanced solid tumors
Type: in vivo, human
Description: This was a phase I, open-label, non-randomized, dose-escalating first-in-human study to evaluate the safety, pharmacokinetics, antitumor activity, pharmacodynamics, and pharmacogenomics of TAS-117 in patients with advanced solid tumors. The study had three phases: a dose escalation phase (DEP), a regimen modification phase (RMP), and a safety assessment phase (SAP). The treatment cycle on each regimen lasted 21 days. The DEP used an accelerated titration and 3 + 3 design. TAS-117 was administered orally once daily (QD) on an empty stomach (1 h before or 2 h after a meal). Dosing was determined based on a 4-week repeated oral-dose toxicology study in monkeys (data on file, Taiho Pharmaceutical Co., Ltd.); the highest non-severely toxic dose was 1.2 mg/kg/day, which was converted to 3.84 mg/body/day, or 2.4 mg/m^2. Therefore, the starting dose was determined to be ≤ 2.4 mg/m^2. At dose level 1, TAS-117 was administered at 2 mg QD (Day − 2), and the dose was increased to 4 mg QD after 2 days (Day 1). The RMP was conducted according to a 3 + 3 design. During this phase, the dose regimen was changed from QD administration to intermittent dosing of daily TAS-117 with 4 days on/3 days off. TAS-117 was administered on an empty stomach. Dose-limiting toxicities (DLTs) were evaluated in Cycle 1 of the DEP and RMP. […] The RD and regimen for the SAP were determined based on the safety, pharmacokinetics, pharmacodynamics, and antitumor activity profile determined in the DEP and RMP. During the SAP, the safety and preliminary efficacy profiles of TAS-117 were assessed at the RD and recommended regimen. Three cohorts were included in this assessment. Cohort 1 included patients with endometrial cancer with a PIK3CA mutation; cohort 2 included patients with endometrial cancer with an AKT1 mutation, AKT1 amplification, or AKT2 amplification; and cohort 3 included patients with ovarian clear cell carcinoma.
The primary endpoints were the proportion of patients who experienced DLTs in Cycle 1 of the DEP and RMP and the incidence of adverse events (AEs) and adverse drug reactions (ADRs) in the SAP. AEs and ADRs were coded using the Medical Dictionary for Regulatory Activities (MedDRA; version 24.1) and graded according to the National Cancer Institute Common Terminology Criteria for Adverse Events (CTCAE; version 4.03). Secondary endpoints were pharmacokinetic findings, changes in the ratio of phosphorylated PRAS40 (pPRAS40)/total PRAS40 from baseline, efficacy, and pharmacogenomics findings.

C[C@]1(O)C[C@@](N)(c2ccc(-c3nc4n(c3-c3ccccc3)COc3ccncc3-4)cc2)C1 [TAS-117]
Adverse drug reactions: AST increased (SAP n = 43, All grade): 6 (14.0) n (%)
Adverse drug reactions: Any events (SAP n = 43, All grade): 43 (100.0) n (%)
Adverse drug reactions: Blood AP increased (SAP n = 43, All grade): 5 (11.6) n (%)
Adverse drug reactions: Decreased appetite (SAP n = 43, All grade): 3 (7.0) n (%)
Adverse drug reactions: Diarrhea (SAP n = 43, All grade): 5 (11.6) n (%)
Adverse drug reactions: Dry skin (SAP n = 43, All grade): 7 (16.3) n (%)
Adverse drug reactions: GGT increased (SAP n = 43, All grade): 5 (11.6) n (%)
Adverse drug reactions: GI disorders (SAP n = 43, All grade): 29 (67.4) n (%)
Adverse drug reactions: General disorders and administration site conditions (SAP n = 43, All grade): 20 (46.5) n (%)
Adverse drug reactions: Hyperglycemia (SAP n = 43, All grade): 23 (53.5) n (%)
Adverse drug reactions: Investigations (SAP n = 43, All grade): 28 (65.1) n (%)
Adverse drug reactions: Metabolism and nutrition disorders (SAP n = 43, All grade): 26 (60.5) n (%)
Adverse drug reactions: Nausea (SAP n = 43, All grade): 12 (27.9) n (%)
Adverse drug reactions: Neutrophil count decreased (SAP n = 43, All grade): 15 (34.9) n (%)
Adverse drug reactions: Pruritus (SAP n = 43, All grade): 8 (18.6) n (%)
Adverse drug reactions: Pyrexia (SAP n = 43, All grade): 12 (27.9) n (%)
Adverse drug reactions: Rash maculo-papular (SAP n = 43, All grade): 40 (93.0) n (%)
Adverse drug reactions: Skin and SC tissue disorders (SAP n = 43, All grade): 41 (95.3) n (%)
Adverse drug reactions: Stomatitis (SAP n = 43, All grade): 26 (60.5) n (%)
Adverse drug reactions: Vomiting (SAP n = 43, All grade): 4 (9.3) n (%)
Adverse drug reactions: WBC count decreased (SAP n = 43, All grade): 19 (44.2) n (%)
Adverse events: ALT increased (SAP n = 43, All grade): 8 (18.6) n (%)
Adverse events: AST increased (SAP n = 43, All grade): 8 (18.6) n (%)
Adverse events: Any events (SAP n = 43, All grade): 43 (100.0) n (%)
Adverse events: Blood AP increased (SAP n = 43, All grade): 5 (11.6) n (%)
Adverse events: Decreased appetite (SAP n = 43, All grade): 7 (16.3) n (%)
Adverse events: Diarrhea (SAP n = 43, All grade): 9 (20.9) n (%)
Adverse events: Dry skin (SAP n = 43, All grade): 10 (23.3) n (%)
Adverse events: GGT increased (SAP n = 43, All grade): 7 (16.3) n (%)
Adverse events: GI disorders (SAP n = 43, All grade): 35 (81.4) n (%)
Adverse events: General disorders and administration site conditions (SAP n = 43, All grade): 25 (58.1) n (%)
Adverse events: Hyperglycemia (SAP n = 43, All grade): 23 (53.5) n (%)
Adverse events: Investigations (SAP n = 43, All grade): 29 (67.4) n (%)
Adverse events: Metabolism and nutrition disorders (SAP n = 43, All grade): 28 (65.1) n (%)
Adverse events: Nausea (SAP n = 43, All grade): 15 (34.9) n (%)
Adverse events: Neutrophil count decreased (SAP n = 43, All grade): 15 (34.9) n (%)
Adverse events: Pruritus (SAP n = 43, All grade): 8 (18.6) n (%)
Adverse events: Pyrexia (SAP n = 43, All grade): 17 (39.5) n (%)
Adverse events: Rash maculo-papular (SAP n = 43, All grade): 40 (93.0) n (%)
Adverse events: Skin and SC tissue disorders (SAP n = 43, All grade): 41 (95.3) n (%)
Adverse events: Stomatitis (SAP n = 43, All grade): 27 (62.8) n (%)
Adverse events: Vomiting (SAP n = 43, All grade): 8 (18.6) n (%)
Adverse events: WBC count decreased (SAP n = 43, All grade): 19 (44.2) n (%)
Adverse drug reactions: ALT increased (SAP n = 43, ≥ Grade 3): 2 (4.7) n (%)
Adverse drug reactions: AST increased (SAP n = 43, ≥ Grade 3): 0 (0.0) n (%)
Adverse drug reactions: Any events (SAP n = 43, ≥ Grade 3): 30 (69.8) n (%)
Adverse drug reactions: Blood AP increased (SAP n = 43, ≥ Grade 3): 0 (0.0) n (%)
Adverse drug reactions: Decreased appetite (SAP n = 43, ≥ Grade 3): 0 (0.0) n (%)
Adverse drug reactions: Diarrhea (SAP n = 43, ≥ Grade 3): 0 (0.0) n (%)
Adverse drug reactions: Dry skin (SAP n = 43, ≥ Grade 3): 0 (0.0) n (%)
Adverse drug reactions: GGT increased (SAP n = 43, ≥ Grade 3): 4 (9.3) n (%)
Adverse drug reactions: GI disorders (SAP n = 43, ≥ Grade 3): 1 (2.3) n (%)
Adverse drug reactions: General disorders and administration site conditions (SAP n = 43, ≥ Grade 3): 0 (0.0) n (%)
Adverse drug reactions: Hyperglycemia (SAP n = 43, ≥ Grade 3): 7 (16.3) n (%)
Adverse drug reactions: Investigations (SAP n = 43, ≥ Grade 3): 16 (37.2) n (%)
Adverse drug reactions: Metabolism and nutrition disorders (SAP n = 43, ≥ Grade 3): 7 (16.3) n (%)
Adverse drug reactions: Nausea (SAP n = 43, ≥ Grade 3): 0 (0.0) n (%)
Adverse drug reactions: Neutrophil count decreased (SAP n = 43, ≥ Grade 3): 9 (20.9) n (%)
Adverse drug reactions: Pruritus (SAP n = 43, ≥ Grade 3): 0 (0.0) n (%)
Adverse drug reactions: Pyrexia (SAP n = 43, ≥ Grade 3): 0 (0.0) n (%)
Adverse drug reactions: Rash maculo-papular (SAP n = 43, ≥ Grade 3): 20 (46.5) n (%)
Adverse drug reactions: Skin and SC tissue disorders (SAP n = 43, ≥ Grade 3): 21 (48.8) n (%)
Adverse drug reactions: Stomatitis (SAP n = 43, ≥ Grade 3): 1 (2.3) n (%)
Adverse drug reactions: Vomiting (SAP n = 43, ≥ Grade 3): 0 (0.0) n (%)
Adverse drug reactions: WBC count decreased (SAP n = 43, ≥ Grade 3): 5 (11.6) n (%)
Adverse events: ALT increased (SAP n = 43, ≥ Grade 3): 2 (4.7) n (%)
Adverse events: AST increased (SAP n = 43, ≥ Grade 3): 0 (0.0) n (%)
Adverse events: Any events (SAP n = 43, ≥ Grade 3): 34 (79.1) n (%)
Adverse events: Blood AP increased (SAP n = 43, ≥ Grade 3): 0 (0.0) n (%)
Adverse events: Decreased appetite (SAP n = 43, ≥ Grade 3): 1 (2.3) n (%)
Adverse events: Diarrhea (SAP n = 43, ≥ Grade 3): 0 (0.0) n (%)
Adverse events: Dry skin (SAP n = 43, ≥ Grade 3): 0 (0.0) n (%)
Adverse events: GGT increased (SAP n = 43, ≥ Grade 3): 6 (14.0) n (%)
Adverse events: GI disorders (SAP n = 43, ≥ Grade 3): 2 (4.7) n (%)
Adverse events: General disorders and administration site conditions (SAP n = 43, ≥ Grade 3): 0 (0.0) n (%)
Adverse events: Hyperglycemia (SAP n = 43, ≥ Grade 3): 7 (16.3) n (%)
Adverse events: Investigations (SAP n = 43, ≥ Grade 3): 18 (41.9) n (%)
Adverse events: Metabolism and nutrition disorders (SAP n = 43, ≥ Grade 3): 9 (20.9) n (%)
Adverse events: Nausea (SAP n = 43, ≥ Grade 3): 0 (0.0) n (%)
Adverse events: Neutrophil count decreased (SAP n = 43, ≥ Grade 3): 9 (20.9) n (%)
Adverse events: Pruritus (SAP n = 43, ≥ Grade 3): 0 (0.0) n (%)
Adverse events: Pyrexia (SAP n = 43, ≥ Grade 3): 0 (0.0) n (%)
Adverse events: Rash maculo-papular (SAP n = 43, ≥ Grade 3): 20 (46.5) n (%)
Adverse events: Skin and SC tissue disorders (SAP n = 43, ≥ Grade 3): 21 (48.8) n (%)
Adverse events: Stomatitis (SAP n = 43, ≥ Grade 3): 1 (2.3) n (%)
Adverse events: Vomiting (SAP n = 43, ≥ Grade 3): 0 (0.0) n (%)
Adverse events: WBC count decreased (SAP n = 43, ≥ Grade 3): 5 (11.6) n (%)
Death (grade 5 respiratory failure, judged unrelated to TAS-117) (SAP, cohort 1): One patient
Adverse drug reactions: ALT increased (Total N = 65, All grade): 7 (10.8) n (%)
Adverse drug reactions: AST increased (Total N = 65, All grade): 8 (12.3) n (%)
Adverse drug reactions: Any events (Total N = 65, All grade): 64 (98.5) n (%)
